Target: T1, TspDTI (Thermus sp. DT, UniProt A8QN47)
T1 construct: recombinant from E. coli DH11S [pRZ-TspDTI], one extra Ala codon (GCG) after the start Met; native enzyme from Thermus sp; DT also purified; monomer; N-terminus […]
Test: lambda DNA cleavage, agarose gel
Assay type: biochemical
Conditions: Mg2+ restriction buffer, 70 C, 30 min, allosteric activator (site not established)

T1 sequence (A8QN47 entry or part of it): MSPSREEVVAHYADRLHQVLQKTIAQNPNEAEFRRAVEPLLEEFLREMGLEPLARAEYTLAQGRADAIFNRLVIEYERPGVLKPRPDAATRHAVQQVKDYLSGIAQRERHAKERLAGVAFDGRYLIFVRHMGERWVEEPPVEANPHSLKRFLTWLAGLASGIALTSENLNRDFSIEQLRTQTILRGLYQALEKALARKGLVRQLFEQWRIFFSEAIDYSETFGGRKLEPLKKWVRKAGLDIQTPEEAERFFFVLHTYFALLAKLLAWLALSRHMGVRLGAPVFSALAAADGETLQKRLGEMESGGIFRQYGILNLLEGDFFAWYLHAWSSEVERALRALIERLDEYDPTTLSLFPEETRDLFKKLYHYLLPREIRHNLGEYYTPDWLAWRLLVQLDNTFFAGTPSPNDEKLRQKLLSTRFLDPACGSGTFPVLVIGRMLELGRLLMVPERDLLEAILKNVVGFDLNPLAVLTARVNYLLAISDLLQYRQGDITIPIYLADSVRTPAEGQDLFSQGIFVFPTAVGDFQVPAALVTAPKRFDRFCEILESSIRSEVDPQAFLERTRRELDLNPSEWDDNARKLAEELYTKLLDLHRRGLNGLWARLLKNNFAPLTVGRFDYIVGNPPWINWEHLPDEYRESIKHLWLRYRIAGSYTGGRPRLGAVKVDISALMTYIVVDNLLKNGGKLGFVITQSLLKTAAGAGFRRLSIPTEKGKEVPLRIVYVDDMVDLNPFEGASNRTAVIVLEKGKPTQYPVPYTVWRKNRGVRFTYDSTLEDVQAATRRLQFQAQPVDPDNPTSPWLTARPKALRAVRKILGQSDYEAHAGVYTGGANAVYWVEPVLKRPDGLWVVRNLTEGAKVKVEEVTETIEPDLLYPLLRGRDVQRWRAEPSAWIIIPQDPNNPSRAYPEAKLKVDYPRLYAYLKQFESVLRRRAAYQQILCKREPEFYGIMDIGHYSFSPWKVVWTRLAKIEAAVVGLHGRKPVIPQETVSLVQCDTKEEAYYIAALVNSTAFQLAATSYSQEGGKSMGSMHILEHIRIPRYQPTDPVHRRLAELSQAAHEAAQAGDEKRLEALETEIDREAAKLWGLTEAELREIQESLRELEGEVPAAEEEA

| Structure (SMILES) | lambda DNA cleavage, agarose gel (stimulates REase at 50 uM SAM, also methyl donor of the MTase activity (200 uM)) | lambda DNA cleavage, agarose gel (stimulates REase at 50 uM SIN, SAM analogue, not a methyl donor) |
| --- | --- | --- |
| C[S+](CC[C@H](N)C(=O)O)C[C@H]1O[C@@H](n2cnc3c(N)ncnc32)[C@H](O)[C@@H]1O (some centres unmarked) [SAM] | is stimulated equally by both SAM and its analogue - SIN |  |
| Nc1ncnc2c1ncn2[C@@H]1O[C@H](C[C@@H](N)CC[C@H](N)C(=O)O)[C@@H](O)[C@H]1O [SIN] |  | is stimulated equally by both SAM and its analogue - SIN |
